Here are results for 14 molecules from patent US4279905A, “1-Benzoxepin-5 (2H)-one derivatives and pharmaceutical compositions” (Kali-Chemie Pharma GmbH, priority 1979, dated 1981).

The subject of data set [1] is gastric peristalsis. The experiment in a line: Testing of the gastric peristalsis (gastric pressure, barium chloride-stimulated stomach of narcotized rats). The data set is classed as in vivo. The settings on record: 20 mg/kg intraperitoneally, BaCl2 50 mg/kg/h i.v. infusion, compared with control value before compound; for Change in gastric pressure-wave amplitude: the values are: decrease in gastric amplitude; for change in vivo at 20 mg/kg: Rattus norvegicus, ip, read-out: Frequency Decrease in %. From the text: To determine the functioning of the gastric peristalsis, rats weighing about 200 g are narcotized by means of ketamine hydrochloride and xylazine. A catheter is introduced into the Vena jugularis of the narcotized rats and a tracheal catheter into the trachea. A stomach probe is inserted into their stomach and tied thereto. The probe is connected via a three-way cock with a Statham pressure imparting device (P 23 DB). The stomach is sealed off by a ligature at the pylorus and at the cardia. The stomach is filled with 3 ml of a 0.9% aqueous sodium chloride solution. The pressure waves produced by the stomach are continuously registered by a suitable recording device such by a Watanabe Multicorder (MC 641).
In conducting the test, a control value is obtained by inducing a stimulation of the stomach through a lengthy intravenous infusion of 50 mg/kg/h of bariumchloride and the amplitude and frequency of resultant pressure waves are measured. Subsequently, in order to determine the pharmacological effects, the compounds to be tested are dissolved in physiological sodium chloride solution or are suspended in Tylose MH 50 solution. The solutions or suspensions are then administered intraperitoneally to the rats in a dose of 20 mg/kg. The amplitudes and frequencies of the pressure wave-like movements of the stomach as they occur with the test solution and after administration of the compound to be tested, are compared.

Data set [2] in a line: Determination of acute toxicity (seven-day, single intraperitoneal dose). The settings on record: in vivo, ip, fasting white NMRI mouse, single dose i.p., probit analysis, read-out: LP50 i.p. As to the method:
The acute seven-day toxicity is determined by intraperitoneal administration of a single dose of the respective compound to a fasting white NMRI mouse. The LD50 -values are calculated via electronic data processing by a probit analysis as described in the book "Grundbegriffe der Biometrie" (Basic Biometrical Definitions) by L. Cavalli-Sforza, page 153 et seq., published by Gustav Fischer Verlag, Stuttgart, 1964.

Take `CC(C)NC1=CC(=O)c2ccccc2OC1` [C, 3-isopropylamino-1-benzoxepin-5(2H)-one]: in data set [1], the Change in gastric pressure-wave amplitude came out at 32% and the change in vivo at 20 mg/kg was -2%. In data set [2], the LD50 at 168 h stood at 544 mg/kg.
The corresponding values for `CCCCNC1=CC(=O)c2ccccc2OC1` [E, 3-(n-butylamino)-1-benzoxepin-5(2H)-one] are 26%, 36% and 442 mg/kg.
As for `O=C1C=C(NCCc2ccccc2)COc2ccccc21` [Compound F, 3-phenethylamino-1-benzoxepin-5(2H)-one], in data set [1], the Change in gastric pressure-wave amplitude came out at 29% and the change in vivo at 20 mg/kg is -7%.
The like results for `CNC1=CC(=O)c2cc(Cl)ccc2OC1` [N, 3-methylamino-7-chloro-1-benzoxepin-5(2H)-one] were, in that order, 46% and -1%.
For `CNC1=CC(=O)c2cc(F)ccc2OC1` [O, 3-methylamino-7-fluoro-1-benzoxepin-5(2H)-one], in data set [1], the Change in gastric pressure-wave amplitude is 37% and the change in vivo at 20 mg/kg amounted to 1%.
For the molecule `CNC1=CC(=O)c2ccc(Cl)cc2OC1` [B, 3-methylamino-8-chloro-1-benzoxepin-5(2H)-one], in data set [1], the Change in gastric pressure-wave amplitude turned out to be 58% and the change in vivo at 20 mg/kg is -16%. In addition, the LD50 at 168 h in data set [2] is 450 mg/kg.
The corresponding values for `NC1=CC(=O)c2ccccc2OC1` [D, 3-amino-1-benzoxepin-5(2H)-one] are 45%, -12% and 544 mg/kg.
The corresponding values for `O=C1C=C(N2CCOCC2)COc2ccccc21` [H, 3-morpholino-1-benzoxepin-5(2H)-one] are 12%, 17% and 650 mg/kg.
Take `CNC1=CC(=O)c2ccc(C)cc2OC1` [K, 3-methylamino-8-methyl-1-benzoxepin-5(2H)-one]: in data set [1], the Change in gastric pressure-wave amplitude was determined as 55% and the change in vivo at 20 mg/kg came out at 4%.
For `CNC1=CC(=O)c2ccccc2OC1` [A, 3-methylamino-1-benzoxepin-5(2H)-one], in data set [1], the Change in gastric pressure-wave amplitude was found to be 56% and the change in vivo at 20 mg/kg is -18%. Moreover, in data set [2], the LD50 at 168 h worked out at 664 mg/kg.
As for `CNC1=CC(=O)c2cc(C)ccc2OC1` [L, 3-methylamino-7-methyl-1-benzoxepin-5(2H)-one], in data set [1], the Change in gastric pressure-wave amplitude was 75% and the change in vivo at 20 mg/kg was 15%.
The corresponding values for `CNC1=CC(=O)c2ccc(C(C)(C)C)cc2OC1` [M, 3-methylamino-8-tert.-butyl-1-benzoxepin-5(2H)-one] are 72% and 10%.
In the case of `O=C1C=C(N2CCN(Cc3ccccc3)CC2)COc2ccccc21` [G, 3-(N-benzylpiperazino)-1-benzoxepin-5(2H)-one], in data set [1], the Change in gastric pressure-wave amplitude came out at 31% and the change in vivo at 20 mg/kg amounted to 10%. Moreover, the LD50 at 168 h in data set [2] is 634 mg/kg.
As for `COCCNC1=CC(=O)c2ccccc2OC1` [I, 3-(β-methoxyethylamino)-1-benzoxepin-5(2H)-one], in data set [1], the Change in gastric pressure-wave amplitude is 46% and the change in vivo at 20 mg/kg was found to be 11%.
